Like-named read-outs stand apart in the source and are kept apart here.
Legend:
[1] = test system: patients with non-constipation IBS (non-C IBS); assay: Stool frequency, rifaximin 550 mg TID study; assay type: in vivo, human
[2] = test system: C. difficile infection (CDI); assay: CDI trial rifaximin 400 mg TID vs vancomycin 125 mg QID: clinical success at Test of Cure; assay type: in vivo, human
Method: Criteria for entry into the trial were: • Age>=18 years old; • Had acute diarrhea at screening defined as >=3 unformed stools in the last 24 hours and at least one sign of enteric infection (fever, nausea, lose of appetite, vomiting, severe abdominal pain/discomfort); and • a positive C. diff stool toxin assay
The primary efficacy endpoint of the study was defined as the proportion of subjects achieving clinical success. Specifically, clinical success was defined as the absence of severe abdominal pain at Test of Cure (TOC), absence of fever (<38° C.) at TOC, and <3 unformed stools for two consecutive days at TOC.
The non-inferiority margin for the primary endpoint was defined as lower bound of 95% CI of delta above −15%.
Clinical success was defined as the: Absence of severe abdominal pain at TOC, absence of fever (<38° C.) at TOC, and <3 unformed stools for two consecutive days at TOC. Test of cure defined as Day 14+/−1 day.

[3] = test system: C. difficile infection (CDI); assay: CDI trial: subgroup analysis of diarrhea at TOC; assay type: in vivo, human; settings: for Diarrhea, number of subjects / Diarrhea, percent of subjects / No Diarrhea, number of subjects / No Diarrhea, percent of subjects: at TOC; for Diarrhea at TOC: Treatment Difference: Rifaximin vs Vancomycin
Description: Tables 42 and 43 set forth a subgroup analysis of diarrhea at TOC.

IBS patients = settings: cited from earlier work
[4] = at TOC (Day 14+/−1), Rifaximin N = 117, Vancomycin N = 115
[5] = subgroup Age <65, Rifaximin N = 69, Vancomycin N = 62
[6] = subgroup Age >=65, Rifaximin N = 39, Vancomycin N = 49
[7] = subgroup Female, Rifaximin N = 68, Vancomycin N = 64
[8] = subgroup Male, Rifaximin N = 40, Vancomycin N = 47
[9] = Pimentel, et al., responders/treated
[10] = Yang, et al, responders/treated

Structure (SMILES): CO[C@H]1/C=C/O[C@@]2(C)Oc3c(C)c(O)c4c(O)c(c5c(nc6cc(C)ccn65)c4c3C2=O)NC(=O)/C(C)=C\C=C\[C@H](C)[C@H](O)[C@@H](C)[C@@H](O)[C@@H](C)[C@H](OC(C)=O)[C@@H]1C [Rifaximin, (2S,16Z,18E,20S,21S,22R, 23R,24R,25S,26S,27S,28E)-5,6,21,23,25 Pentahydroxy-27-methoxy-2,4,11,16,20,22,24,26-octamethyl-2,7-(epoxypentadeca-(1,11,13)trienimino) benzofuro (4,5-e) pyrido(1,2,-a) benzimidazole-1,15(2H)-dione,25-acetate]
- % with decrease in SF (stool frequency) ([1]; Week 4): 21.6%
- % with decrease in SF (stool frequency) ([1]; Week 5): 25.7%
- % with decrease in SF (stool frequency) ([1]; Week 6): 22.9%
- % with decrease in SF (stool frequency) ([1]; Week 7): 23.8%
- % with decrease in SF (stool frequency) ([1]; Week 8): 24.4%
- % with decrease in SF (stool frequency) ([1]; Week 9): 25.4%
- % with decrease in SF (stool frequency) ([1]; Week 10): 26.7%
- % with decrease in SF (stool frequency) ([1]; Week 11): 25.4%
- % with decrease in SF (stool frequency) ([1]; Week 12): 27.0%
- Clinical Success: Treatment Difference ([2]; Rifaximin vs Vancomycin, at TOC): −6.2%
- Clinical Success: Yes, number of subjects ([2]; at TOC (Day 14+/−1), Rifaximin 400 mg TID N = 117, Vancomycin 125 mg QID N = 115): 67
- Clinical Success: No, number of subjects [2, 4]: 50
- Clinical Success: No, percent of subjects [2, 4]: (43%)
- Clinical Success: Yes, percent of subjects [2, 4]: (57%)
- Diarrhea, number of subjects [3, 5]: 16
- Diarrhea, percent of subjects [3, 5]: (23%)
- No Diarrhea, number of subjects [3, 5]: 53
- No Diarrhea, percent of subjects [3, 5]: (77%)
- Diarrhea, number of subjects [3, 6]: 6
- Diarrhea, percent of subjects [3, 6]: (15%)
- No Diarrhea, number of subjects [3, 6]: 33
- No Diarrhea, percent of subjects [3, 6]: (85%)
- Diarrhea, number of subjects [3, 7]: 14
- Diarrhea, percent of subjects [3, 7]: (21%)
- No Diarrhea, number of subjects [3, 7]: 54
- No Diarrhea, percent of subjects [3, 7]: (79%)
- Diarrhea, number of subjects [3, 8]: 8
- Diarrhea, percent of subjects [3, 8]: (20%)
- No Diarrhea, number of subjects [3, 8]: 32
- No Diarrhea, percent of subjects [3, 8]: (80%)
- Diarrhea at TOC: Treatment Difference ([3]; subgroup Age <65): −3.8%
- Diarrhea at TOC: Treatment Difference ([3]; subgroup Age >=65): 3.0%
- Diarrhea at TOC: Treatment Difference ([3]; subgroup Female): −3.4%
- Diarrhea at TOC: Treatment Difference ([3]; subgroup Male): 1.3%
- Initial treatment response (IBS patients; Jolley, IBS-D patients, 1200 mg/day for 10 days): Initial treatment response: 56% (25/45)
- Re-treatment response (at least 1) (IBS patients; Jolley, IBS-D patients, 2400 mg/day for 10 days): Re-treatment response (at least 1): 54%
- Complete (>90%) relief (IBS patients; Jolley, IBS-D patients): Complete (>90%) relief: 11% (5/45)
- Complete (>90%) relief upon re-treatment (IBS patients; Jolley, IBS-D patients): re-treatment: 13% (3/24)
- Re-treatment response (at least 1) (IBS patients; Pimentel, et al., 1 to 6 re-treatments): > 75%
- Initial treatment response (IBS patients; Pimentel, et al., 169 Non-C IBS Patients (Rome III), 400-550 mg TID for 14 days): Initial treatment response: 75%
- Duration of benefit (IBS patients; Pimentel, et al.): Duration of benefit is ~4 m
- Re-treatment response, First (IBS patients; [9]): 54/65
- Re-treatment response, Second (IBS patients; [9]): 38/40
- Re-treatment response, Third (IBS patients; [9]): 17/18
- Initial treatment response (IBS patients; Weinstock, 99 Non-C IBS Patients (Rome II), 1200-1650 mg/day for 10 days): Initial treatment response: 75% (74/99)
- Patients who did not require retreatment (IBS patients; Weinstock): 27% did not require retreatment
- Patients with only 12 retreatment in 2 y (IBS patients; Weinstock): 51% only 12 retreatment in 2 y
- Patients who maintained response (IBS patients; Weinstock, for mean 1.6 y): 41%
- Mean time response was maintained (IBS patients; Weinstock, in the 41% who maintained response): 1.6 y
- Re-treatment response (at least 1) (IBS patients; Yang, et al, 1200 mg/day for 10 days): 100%
- Initial treatment response (IBS patients; Yang, et al, 84 IBS Patients (Rome I), 1200 mg/day for 10 days): Initial treatment response: 69% (58/84)
- Re-treatment response, First (IBS patients; [10]): 16/16
- Re-treatment response, Second (IBS patients; [10]): 4/4

From patent US20130184302A1, “METHODS FOR TREATING IRRITABLE BOWEL SYNDROME (IBS) AND INFECTIONS” (priority 2011, published 2013)
